Data: the kinase profiling compilation of Christmann-Franck et al. (2016)
“And” between values parts separate entries of the source, which are not always exact repeats. Equal entries are not always repeated.

Key:
Assay in all cases: radiometric filter-binding kinase assay, Kinase HotSpot
Conditions in all cases: compound 0.5 µM; ATP 10 µM
MAP3K10 (human) = MAP3K10 (human) (UniProt Q02779)
AURKB (human) = AURKB (human) (UniProt Q96GD4)
CAMK1D (human) = CAMK1D (human) (UniProt Q8IU85)
MAP3K9 (human) = MAP3K9 (human) (UniProt P80192)
RPS6KA4 KD2 (human) = RPS6KA4 KD2 (human) (UniProt O75676)
PDGFRA (human) = PDGFRA (human) (UniProt P16234)
PKN2 (human) = PKN2 (human) (UniProt Q16513)
LYN (human) = LYN (human) (UniProt P07948)
PIM2 (human) = PIM2 (human) (UniProt Q9P1W9)
MAP3K11 (human) = MAP3K11 (human) (UniProt Q16584)
RPS6KB2 (human) = RPS6KB2 (human) (UniProt Q9UBS0)
EPHA5 (human) = EPHA5 (human) (UniProt P54756)
TYRO3 (human) = TYRO3 (human) (UniProt Q06418)
CLK3 (human) = CLK3 (human) (UniProt P49761)
STK39 (human) = STK39 (human) (UniProt Q9UEW8)
ACVRL1 (human) = ACVRL1 (human) (UniProt P37023)
[1] = biological target: JAK1 JH1 catalytic (human) (UniProt P23458)
PRKD1 (human) = PRKD1 (human) (UniProt Q15139)
HCK (human) = HCK (human) (UniProt P08631)
TEK (human) = TEK (human) (UniProt Q02763)
MAPKAPK3 (human) = MAPKAPK3 (human) (UniProt Q16644)
EPHB2 (human) = EPHB2 (human) (UniProt P29323)
TNK2 (human) = TNK2 (human) (UniProt Q07912)
CDK5 CDK5R1 p35 (human) = CDK5 CDK5R1 p35 (human) (UniProt Q00535+Q15078)
PRKCA (human) = PRKCA (human) (UniProt P17252)
STK4 (human) = STK4 (human) (UniProt Q13043)
WNK3 (human) = WNK3 (human) (UniProt Q9BYP7)
MAP4K2 (human) = MAP4K2 (human) (UniProt Q12851)
CDK6 CCND3 (human) = CDK6 CCND3 (human) (UniProt P30281+Q00534)
PLK2 (human) = PLK2 (human) (UniProt Q9NYY3)
ABL1 (human) = ABL1 (human) (UniProt P00519)
PRKCB2 (human) = PRKCB2 (human) (UniProt P05771)
MAP3K14 (human) = MAP3K14 (human) (UniProt Q99558)
SLK (human) = SLK (human) (UniProt Q9H2G2)
MAP3K3 (human) = MAP3K3 (human) (UniProt Q99759)
IGF1R (human) = IGF1R (human) (UniProt P08069)
MARK4 (human) = MARK4 (human) (UniProt Q96L34)
CSNK1G3 (human) = CSNK1G3 (human) (UniProt Q9Y6M4)
SRPK1 (human) = SRPK1 (human) (UniProt Q96SB4)
PRKG1 (human) = PRKG1 (human) (UniProt Q13976)
MAP4K5 (human) = MAP4K5 (human) (UniProt Q9Y4K4)

Sequence of EPHA5 (human) (P54756 whole entry, looked up): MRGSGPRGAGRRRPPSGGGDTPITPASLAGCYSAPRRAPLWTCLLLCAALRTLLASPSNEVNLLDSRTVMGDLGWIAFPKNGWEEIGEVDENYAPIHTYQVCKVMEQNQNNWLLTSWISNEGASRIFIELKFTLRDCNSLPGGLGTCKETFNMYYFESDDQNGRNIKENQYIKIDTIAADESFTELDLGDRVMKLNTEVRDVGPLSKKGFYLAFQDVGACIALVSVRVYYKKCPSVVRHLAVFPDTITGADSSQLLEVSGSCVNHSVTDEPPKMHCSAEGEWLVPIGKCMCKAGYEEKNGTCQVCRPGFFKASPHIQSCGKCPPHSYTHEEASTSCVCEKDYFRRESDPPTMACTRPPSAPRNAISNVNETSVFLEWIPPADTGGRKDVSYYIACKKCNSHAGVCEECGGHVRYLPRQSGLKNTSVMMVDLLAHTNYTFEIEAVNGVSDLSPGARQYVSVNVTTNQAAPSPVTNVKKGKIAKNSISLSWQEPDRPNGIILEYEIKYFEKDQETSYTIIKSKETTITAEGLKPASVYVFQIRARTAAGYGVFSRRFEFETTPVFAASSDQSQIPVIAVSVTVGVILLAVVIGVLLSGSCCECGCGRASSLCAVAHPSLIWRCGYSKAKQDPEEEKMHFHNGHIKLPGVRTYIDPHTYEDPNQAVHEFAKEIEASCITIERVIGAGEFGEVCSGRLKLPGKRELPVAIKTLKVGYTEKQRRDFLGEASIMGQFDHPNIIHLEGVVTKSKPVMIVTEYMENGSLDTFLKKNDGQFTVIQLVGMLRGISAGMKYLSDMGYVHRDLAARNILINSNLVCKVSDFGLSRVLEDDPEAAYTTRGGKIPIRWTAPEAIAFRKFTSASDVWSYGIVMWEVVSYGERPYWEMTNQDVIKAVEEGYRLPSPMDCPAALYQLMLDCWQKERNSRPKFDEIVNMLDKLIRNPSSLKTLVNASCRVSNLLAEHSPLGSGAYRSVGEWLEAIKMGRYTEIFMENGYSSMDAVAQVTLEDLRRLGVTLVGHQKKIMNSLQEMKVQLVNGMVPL
Sequence of CAMK1D (human) (Q8IU85 whole entry, looked up): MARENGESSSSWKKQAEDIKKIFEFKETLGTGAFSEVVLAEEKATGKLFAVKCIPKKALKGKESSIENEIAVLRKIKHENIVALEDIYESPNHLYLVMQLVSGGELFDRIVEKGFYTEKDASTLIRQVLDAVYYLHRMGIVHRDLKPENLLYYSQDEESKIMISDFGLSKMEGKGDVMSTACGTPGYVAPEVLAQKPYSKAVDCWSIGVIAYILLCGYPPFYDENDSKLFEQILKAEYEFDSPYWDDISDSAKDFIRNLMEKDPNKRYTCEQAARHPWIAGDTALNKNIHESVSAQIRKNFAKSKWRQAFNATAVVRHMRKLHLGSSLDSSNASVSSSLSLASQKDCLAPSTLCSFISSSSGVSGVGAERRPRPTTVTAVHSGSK
Sequence of CLK3 (human) (P49761 whole entry, looked up): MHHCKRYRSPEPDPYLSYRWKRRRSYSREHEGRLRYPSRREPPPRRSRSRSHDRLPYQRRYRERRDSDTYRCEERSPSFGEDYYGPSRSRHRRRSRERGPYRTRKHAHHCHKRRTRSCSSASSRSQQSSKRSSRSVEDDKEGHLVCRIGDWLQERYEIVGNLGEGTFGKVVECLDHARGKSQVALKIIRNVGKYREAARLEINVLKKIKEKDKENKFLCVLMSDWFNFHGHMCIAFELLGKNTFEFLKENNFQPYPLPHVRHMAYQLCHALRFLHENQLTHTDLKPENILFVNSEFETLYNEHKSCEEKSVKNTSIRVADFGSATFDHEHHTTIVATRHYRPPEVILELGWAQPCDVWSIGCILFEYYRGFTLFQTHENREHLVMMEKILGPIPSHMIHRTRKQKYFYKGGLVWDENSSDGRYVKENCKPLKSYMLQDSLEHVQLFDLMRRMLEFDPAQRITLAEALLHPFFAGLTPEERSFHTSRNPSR
Sequence of SLK (human) (Q9H2G2 whole entry, looked up): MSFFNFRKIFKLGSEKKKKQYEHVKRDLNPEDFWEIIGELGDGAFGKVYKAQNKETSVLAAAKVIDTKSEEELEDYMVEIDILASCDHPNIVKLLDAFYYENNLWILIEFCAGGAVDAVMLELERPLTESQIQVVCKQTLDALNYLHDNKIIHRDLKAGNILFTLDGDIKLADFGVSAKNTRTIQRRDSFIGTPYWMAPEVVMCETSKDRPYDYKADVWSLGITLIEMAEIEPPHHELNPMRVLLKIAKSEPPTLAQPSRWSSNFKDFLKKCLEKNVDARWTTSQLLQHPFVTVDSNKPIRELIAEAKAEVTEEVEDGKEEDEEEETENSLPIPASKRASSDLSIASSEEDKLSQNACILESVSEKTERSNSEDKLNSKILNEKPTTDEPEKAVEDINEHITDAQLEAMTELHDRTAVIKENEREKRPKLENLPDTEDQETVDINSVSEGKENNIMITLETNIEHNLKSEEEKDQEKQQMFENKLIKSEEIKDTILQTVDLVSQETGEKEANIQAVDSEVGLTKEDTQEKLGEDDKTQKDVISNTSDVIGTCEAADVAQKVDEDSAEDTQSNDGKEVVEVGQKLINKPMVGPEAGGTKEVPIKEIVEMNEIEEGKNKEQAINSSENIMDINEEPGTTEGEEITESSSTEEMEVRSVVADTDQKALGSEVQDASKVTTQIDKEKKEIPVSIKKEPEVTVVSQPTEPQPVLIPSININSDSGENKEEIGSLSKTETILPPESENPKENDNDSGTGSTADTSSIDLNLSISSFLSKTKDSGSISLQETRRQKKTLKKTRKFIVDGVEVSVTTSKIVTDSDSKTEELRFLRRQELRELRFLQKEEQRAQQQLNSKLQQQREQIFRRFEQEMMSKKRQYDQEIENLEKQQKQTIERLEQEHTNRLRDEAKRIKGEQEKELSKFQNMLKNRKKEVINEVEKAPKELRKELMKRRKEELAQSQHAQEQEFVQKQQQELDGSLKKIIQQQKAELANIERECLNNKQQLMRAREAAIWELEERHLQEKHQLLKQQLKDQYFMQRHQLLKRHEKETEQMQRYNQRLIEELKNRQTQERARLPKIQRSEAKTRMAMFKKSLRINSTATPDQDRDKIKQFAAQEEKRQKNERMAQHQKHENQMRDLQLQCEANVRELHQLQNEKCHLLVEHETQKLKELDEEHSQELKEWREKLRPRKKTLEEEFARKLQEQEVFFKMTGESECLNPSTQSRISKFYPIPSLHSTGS
Sequence of MAP3K9 (human) (P80192 whole entry, looked up): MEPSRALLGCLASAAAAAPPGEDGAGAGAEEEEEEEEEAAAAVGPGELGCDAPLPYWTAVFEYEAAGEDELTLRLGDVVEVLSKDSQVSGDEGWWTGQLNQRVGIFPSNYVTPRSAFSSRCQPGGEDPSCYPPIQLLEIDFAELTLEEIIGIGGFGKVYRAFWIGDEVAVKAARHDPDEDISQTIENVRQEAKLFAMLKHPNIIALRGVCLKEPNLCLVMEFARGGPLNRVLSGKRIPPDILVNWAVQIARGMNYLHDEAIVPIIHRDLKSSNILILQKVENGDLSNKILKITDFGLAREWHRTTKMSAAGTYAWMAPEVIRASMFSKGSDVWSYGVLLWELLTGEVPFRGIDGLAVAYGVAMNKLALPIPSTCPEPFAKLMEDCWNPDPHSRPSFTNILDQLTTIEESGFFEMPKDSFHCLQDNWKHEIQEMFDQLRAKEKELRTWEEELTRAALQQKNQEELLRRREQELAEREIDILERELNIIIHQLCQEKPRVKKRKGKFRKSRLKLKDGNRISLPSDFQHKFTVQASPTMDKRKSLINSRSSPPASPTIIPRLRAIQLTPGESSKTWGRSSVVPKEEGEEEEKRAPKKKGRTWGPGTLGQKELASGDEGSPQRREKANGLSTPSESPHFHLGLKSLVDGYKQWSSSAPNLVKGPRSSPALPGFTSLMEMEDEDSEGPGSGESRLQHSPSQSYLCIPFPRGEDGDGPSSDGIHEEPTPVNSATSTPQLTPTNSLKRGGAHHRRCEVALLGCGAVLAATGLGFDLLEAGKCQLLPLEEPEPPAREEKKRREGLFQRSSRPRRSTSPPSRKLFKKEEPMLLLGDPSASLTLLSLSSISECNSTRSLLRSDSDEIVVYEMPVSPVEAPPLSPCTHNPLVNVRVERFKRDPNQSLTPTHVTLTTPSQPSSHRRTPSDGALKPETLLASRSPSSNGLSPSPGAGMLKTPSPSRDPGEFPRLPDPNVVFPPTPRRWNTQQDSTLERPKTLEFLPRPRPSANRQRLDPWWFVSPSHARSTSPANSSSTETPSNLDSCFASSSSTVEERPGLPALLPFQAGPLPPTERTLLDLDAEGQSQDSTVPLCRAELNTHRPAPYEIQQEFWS
Sequence of PLK2 (human) (Q9NYY3 whole entry, looked up): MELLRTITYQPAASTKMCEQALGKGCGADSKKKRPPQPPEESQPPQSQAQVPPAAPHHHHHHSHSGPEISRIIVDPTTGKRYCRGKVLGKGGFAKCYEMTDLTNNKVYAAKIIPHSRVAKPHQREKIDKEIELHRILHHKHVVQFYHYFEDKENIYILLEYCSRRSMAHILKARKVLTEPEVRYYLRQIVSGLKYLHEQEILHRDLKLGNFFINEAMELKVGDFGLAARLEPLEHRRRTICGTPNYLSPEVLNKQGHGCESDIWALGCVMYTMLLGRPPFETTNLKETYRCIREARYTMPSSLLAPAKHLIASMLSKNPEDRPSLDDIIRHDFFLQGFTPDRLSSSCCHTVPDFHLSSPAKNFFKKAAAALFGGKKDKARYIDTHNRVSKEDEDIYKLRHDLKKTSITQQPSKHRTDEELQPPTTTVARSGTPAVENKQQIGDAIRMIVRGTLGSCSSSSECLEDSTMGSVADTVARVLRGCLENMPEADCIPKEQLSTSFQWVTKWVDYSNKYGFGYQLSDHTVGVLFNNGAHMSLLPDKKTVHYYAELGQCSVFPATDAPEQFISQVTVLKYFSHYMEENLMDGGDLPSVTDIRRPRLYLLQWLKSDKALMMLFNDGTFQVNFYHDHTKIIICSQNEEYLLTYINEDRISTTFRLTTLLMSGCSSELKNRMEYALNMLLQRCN

Cn1cnc2cc3c(Nc4cccc(Br)c4)ncnc3cc21
residual activity (MAP3K10 (human)): 94%
residual activity (AURKB (human)): 78.2%
residual activity (CAMK1D (human)): 104%
residual activity (MAP3K9 (human)): 79.8%
residual activity (RPS6KA4 KD2 (human)): 96.3%
residual activity (PDGFRA (human)): 107%
residual activity (PKN2 (human)): 85.7%
residual activity (LYN (human)): 52.4% and 75.8%
residual activity (PIM2 (human)): 113%
residual activity (MAP3K11 (human)): 94.8%
residual activity (RPS6KB2 (human)): 96.8%
residual activity (EPHA5 (human)): 71.5%
residual activity (TYRO3 (human)): 94.5%
residual activity (CLK3 (human)): 100%
residual activity (STK39 (human)): 111%
residual activity (ACVRL1 (human)): 102%
residual activity [1]: 96.4%
residual activity (PRKD1 (human)): 99.4%
residual activity (HCK (human)): 70.4%
residual activity (TEK (human)): 98.9%
residual activity (MAPKAPK3 (human)): 94.4%
residual activity (EPHB2 (human)): 76.2%
residual activity (TNK2 (human)): 87.3%
residual activity (CDK5 CDK5R1 p35 (human)): 84.6%
residual activity (PRKCA (human)): 79%
residual activity (STK4 (human)): 94.2%
residual activity (WNK3 (human)): 95.8%
residual activity (MAP4K2 (human)): 90.4%
residual activity (CDK6 CCND3 (human)): 107%
residual activity (PLK2 (human)): 101%
residual activity (ABL1 (human)): 32.6%
residual activity (PRKCB2 (human)): 95.4%
residual activity (MAP3K14 (human)): 90.6%
residual activity (SLK (human)): 67.8%
residual activity (MAP3K3 (human)): 109%
residual activity (IGF1R (human)): 102%
residual activity (MARK4 (human)): 105%
residual activity (CSNK1G3 (human)): 88.1%
residual activity (SRPK1 (human)): 96.1%
residual activity (PRKG1 (human)): 97.8% and 98%
residual activity (MAP4K5 (human)): 56.1%

O=C1Cc2c([nH]c3ccc(Br)cc23)-c2ccccc2N1
residual activity (MAP3K10 (human)): 79.3%
residual activity (AURKB (human)): 84.3%
residual activity (CAMK1D (human)): 112%
residual activity (MAP3K9 (human)): 64.6%
residual activity (RPS6KA4 KD2 (human)): 108%
residual activity (PDGFRA (human)): 103%
residual activity (PKN2 (human)): 96.8%
residual activity (LYN (human)): 67.2% and 75.4%
residual activity (PIM2 (human)): 104%
residual activity (MAP3K11 (human)): 49.4%
residual activity (RPS6KB2 (human)): 99.4%
residual activity (EPHA5 (human)): 96.6%
residual activity (TYRO3 (human)): 97.7%
residual activity (CLK3 (human)): 99.3%
residual activity (STK39 (human)): 90.1%
residual activity (ACVRL1 (human)): 99%
residual activity [1]: 102%
residual activity (PRKD1 (human)): 101%
residual activity (HCK (human)): 85.5%
residual activity (TEK (human)): 106%
residual activity (MAPKAPK3 (human)): 100%
residual activity (EPHB2 (human)): 95.5%
residual activity (TNK2 (human)): 38.8%
residual activity (CDK5 CDK5R1 p35 (human)): 70.8%
residual activity (PRKCA (human)): 98.6%
residual activity (STK4 (human)): 81.8%
residual activity (WNK3 (human)): 95.5%
residual activity (MAP4K2 (human)): 20.1%
residual activity (CDK6 CCND3 (human)): 94.4%
residual activity (PLK2 (human)): 99.1%
residual activity (ABL1 (human)): 82.6%
residual activity (PRKCB2 (human)): 102%
residual activity (MAP3K14 (human)): 106%
residual activity (SLK (human)): 95.7%
residual activity (MAP3K3 (human)): 93.2%
residual activity (IGF1R (human)): 103%
residual activity (MARK4 (human)): 60.2%
residual activity (CSNK1G3 (human)): 103%
residual activity (SRPK1 (human)): 99.6%
residual activity (PRKG1 (human)): 93% and 95.9%
residual activity (MAP4K5 (human)): 30.1%

COc1ccc(CNC(=O)Nc2ncc([N+](=O)[O-])s2)cc1
residual activity (MAP3K10 (human)): 97.9%
residual activity (AURKB (human)): 97.1%
residual activity (CAMK1D (human)): 112%
residual activity (MAP3K9 (human)): 101%
residual activity (RPS6KA4 KD2 (human)): 101%
residual activity (PDGFRA (human)): 93%
residual activity (PKN2 (human)): 101%
residual activity (LYN (human)): 91.4% and 97.7%
residual activity (PIM2 (human)): 94.5%
residual activity (MAP3K11 (human)): 101%
residual activity (RPS6KB2 (human)): 93.6%
residual activity (EPHA5 (human)): 117%
residual activity (TYRO3 (human)): 100%
residual activity (CLK3 (human)): 93%
residual activity (STK39 (human)): 96.4%
residual activity (ACVRL1 (human)): 106%
residual activity [1]: 94.2%
residual activity (PRKD1 (human)): 104%
residual activity (HCK (human)): 96.7%
residual activity (TEK (human)): 94%
residual activity (MAPKAPK3 (human)): 103%
residual activity (EPHB2 (human)): 88.4%
residual activity (TNK2 (human)): 96.8%
residual activity (CDK5 CDK5R1 p35 (human)): 96.4%
residual activity (PRKCA (human)): 61.9%
residual activity (STK4 (human)): 99.8%
residual activity (WNK3 (human)): 101%
residual activity (MAP4K2 (human)): 113%
residual activity (CDK6 CCND3 (human)): 99.1%
residual activity (PLK2 (human)): 104%
residual activity (ABL1 (human)): 96.8%
residual activity (PRKCB2 (human)): 103%
residual activity (MAP3K14 (human)): 84.2%
residual activity (SLK (human)): 88.9%
residual activity (MAP3K3 (human)): 87.6%
residual activity (IGF1R (human)): 101%
residual activity (MARK4 (human)): 92.2%
residual activity (CSNK1G3 (human)): 90.4%
residual activity (SRPK1 (human)): 92.9%
residual activity (PRKG1 (human)): 95.9% and 97.3%
residual activity (MAP4K5 (human)): 93.9%
